Source: paper PMC6269938, “Natural Aristolactams and Aporphine Alkaloids as Inhibitors of CDK1/Cyclin B and DYRK1A” (Molecules, 2013)
Entries after “also recorded” stand apart in the source; their conditions may differ. Read-outs that look alike come from different tables or passages of the source.

Experiments:
DYRK1A = DYRK1A (Rattus norvegicus, UniProt Q63470); assay: DYRK1A kinase inhibition assay; type: biochemical; settings: for DYRK1A inhibition at 30 µM, in words: concentration of 30 µM; for IC50 / DYRK1A (IC50 in μM): mean of triplicates, variation max 20%, ATP 15 µM, 30 °C
Experimental: (§1) Values were background subtracted, and activities were calculated as pmoles of phosphate incorporated during a 10 min incubation. […] Controls were performed with appropriate dilutions of DMSO.
DYRK1A (rat, recombinant, expressed in E. coli as a GST fusion protein) was purified by affinity chromatography on glutathione-agarose and assayed as described.

CDK1/Cyclin B = CDK1/Cyclin B kinase inhibition assay; type: biochemical, starfish (Marthasterias glacialis)
Experimental: as §1
CDK1/Cyclin B was extracted in homogenisation buffer from M phase starfish (Marthasterias glacialis) oocytes and purified by affinity chromatography on p9^CKShs1-Sepharose beads, from which it was eluted with free p9^CKShs1 as previously described. […] After a 10 min incubation at 30 °C, 25 µL aliquots of supernatant were spotted onto P81 phosphocellulose paper and treated as described above.

cancer cell = tested on: cancer cell; design: method as in PMID 19801998; settings: cited from earlier work
CDK2 = tested on: CDK2; design: method as in PMID 20097074, PMID 20097066; settings: previous studies; cited from earlier work
Aurora 2 kinase = molecular target: Aurora 2 kinase; design: method as in PMID 20097074, PMID 20097066; settings: previous studies; cited from earlier work
[1] = tested on: polo-box domain of Polo-like kinase 1; design: method as in PMID 19801998; settings: cited from earlier work
CDK4 = tested on: CDK4; design: method as in PMID 20097074, PMID 20097066; settings: previous studies; cited from earlier work
human colon cancer cells = tested on: human colon cancer cells; design: method as in doi:10.1016/j.procbio.2012.05.018; settings: cited from earlier work
human lung cancer cells = tested on: human lung cancer cells; design: method as in PMID 15473647; settings: concentration of 20 μM; cited from earlier work
[2] = mean of triplicates, variation max 20%, ATP 15 µM, histone H1, 30 °C

SMILES | DYRK1A inhibition at 30 µM, in words (DYRK1A) | IC50 (DYRK1A) [µM] | CDK1/Cyclin B inhibition at 30 µM, in words (CDK1/Cyclin B; concentration of 30 µM) | IC50 (CDK1/Cyclin B; [2]) [µM] | also measured
COc1cc2c3c(c1O)-c1c(ccc(OC)c1OC)CC3N(C)CC2 (single isomer, unassigned; (+)) [Compound 6, (+)-corydine] | inactive | > 30 | inactive | > 30 | –
COc1ccc2c(c1O)-c1c3c(cc4c1C(C2)N(C)CC4)OCO3 (single isomer, unassigned; (+)) [Compound 9, (+)-bulbocapnine] | inactive | > 30 | inactive | > 30 | –
COc1ccc2c(c1O)-c1c(OC)c(O)cc3c1C(C2)N(C)CC3 (single isomer, unassigned; (+)) [Compound 10, (+)-N-methyllindcarpine] | inactive | > 30 | inactive | > 30 | –
COc1cc2c(cc1O)CC1NCCc3cc4c(c-2c31)OCO4 (single isomer, unassigned; (+)) [Compound 11, (+)-actinodaphnine] | inactive | > 30 | inactive | > 30 | –
COc1c2c(cc3c1-c1c4c(cc5c1C(C3)NCC5)OCO4)OCO2 (single isomer, unassigned; (+)) [Compound 12, (+)-11-methoxynorneolistine] | – | – | – | – | CDK1/Cyclin B inhibition at 30 µM, in words (CDK1/Cyclin B): did not inhibit; also recorded: unable to inhibit; IC50 (CDK1/Cyclin B): > 30 µM
COc1cc2c3c(c1OC)-c1ccccc1CC3NCC2 (single isomer, unassigned; (+)) [Compound 15, (+)-N-nornuciferine] | – | 4.2 | unable to inhibit | > 30 | CDK1/Cyclin B inhibition at 30 µM, in words (CDK1/Cyclin B; concentration of 30 µM, listed as N-nornuciferine (15)): did not inhibit
COc1cc2c(cc1O)CC1c3c(cc(O)c(OC)c3-2)CCN1C (single isomer, unassigned; (+)) [Compound 16, (+)-boldine] | inactive | > 30 | inactive | > 30 | –
COc1cc([C@H]2OC[C@@H]3C(c4cc(OC)c(O)c(OC)c4)OC[C@H]23)ccc1O (single isomer, unassigned; (-)) [Compound 5, (−)-medioresinol] | – | 0.1 | – | 1.3 | DYRK1A (IC50 in μM) (DYRK1A): submicromolar
CN1CCc2cc3c(c4c2C1Cc1ccccc1-4)OCO3 (single isomer, unassigned; (-)) [Compound 7, (−)-roemerine] | inactive | 15 | unable to inhibit; also recorded: inactive | > 30 | –
COc1c2c3c(c(OC)c1OC)-c1ccccc1CC3NCC2 (single isomer, unassigned; (-)) [Compound 14, (−)-O-methylisopiline] | inactive | > 30 | inactive | > 30 | –
COc1c(O)cc2c3c(cc4ccccc4c13)NC2=O [Compound 1, aristolactam AII] | – | – | inactive | > 30 | –
COc1cc2c3c(cc4c(O)cccc4c3c1OC)NC2=O [Compound 3, velutinam] | – | 0.6 | – | 1.5 | DYRK1A (IC50 in μM) (DYRK1A): submicromolar
COc1c(O)cc2c3c(cc4ccc(O)cc4c13)NC2=O [Compound 4, aristolactam AIIIA] | – | 0.08 | – | 0.2 | cancer cell proliferation, mitotic arrest at G2/M phase, apoptosis (cancer cell): could inhibit cancer cell proliferation; DYRK1A (IC50 in μM) (DYRK1A): submicromolar; IC50 (CDK2): 0.14 µM; IC50 (Aurora 2 kinase): 2.14 µM; ligand targeting the polo-box domain of Polo-like kinase 1 [1]: new ligand; IC50 (CDK4): 1.42 µM
O=C1c2ccccc2-c2c3c(cc4ccnc1c24)OCO3 [Compound 8, liriodenine] | – | 3.1 | unable to inhibit | > 30 | growth of human colon cancer cells, G1/S cell cycle arrest (human colon cancer cells): inhibited the growth; apoptosis induction by inhibiting CDK1/Cyclin B kinase activity, G2/M cell cycle arrest (human lung cancer cells): induced apoptosis; CDK1/Cyclin B inhibition at 30 µM, in words (CDK1/Cyclin B; concentration of 30 µM, listed as Liriodenine (8)): did not inhibit
COc1cc2ccnc3c2c(c1OC)-c1ccccc1C3=O [Compound 13, lysicamine] | – | 2.4 | unable to inhibit | > 30 | CDK1/Cyclin B inhibition at 30 µM, in words (CDK1/Cyclin B; concentration of 30 µM, listed as lysicamine (13)): did not inhibit
